Patent publication US9920069B2, “Compounds for treatment of fluoroquinolone-resistant bacteria” (The Board of Trustees of the University of Illinois, priority 2014, dated 2018)

Tests used:
[1] = system: VRE clinical isolate S234; assay: organism not typed; type: cell-based, E. faecalis
[2] = system: VRE clinical isolate C28535; type: cell-based, E. faecalis
[3] = system: VRE clinical isolate S344; type: cell-based, E. faecium
VRE clinical isolate D1 = assay: organism not typed; type: cell-based, E. faecium
[4] = system: VRE clinical isolate C21667; type: cell-based, E. faecalis
[5] = system: VRE clinical isolate S557; assay: organism not typed; type: cell-based, E. faecium
[6] = system: VRE clinical isolate SL152; type: cell-based, E. faecium
[7] = system: VRE clinical isolate C27569; type: cell-based, E. faecium

Measured: MIC

Cc1cc(=O)n(C)c2c3c4c(cc12)c(C)cc(=O)n4CO3 [DNM, deoxynybomycin]
0.25 µg/mL: all assays above

CCn1c(=O)cc(C)c2cc3c(C)cc(=O)n4c3c(c21)OC4 [DNM-2]
0.25 µg/mL: [2] | [7]
